pIC50: −log10 of the molar value. The source made the active and inactive calls. The rule behind the calls is not given here.
Columns and labels:
[1] = test system: HEK293; assay: Cytotoxicity against human HEK293 cells assessed as reduction in cell viability measured after 48 hrs by MTT assay; assay type: cell-based; conditions: Homo sapiens, HEK293, 48 h; read-out: IC50
[2] = test system: DU-145; assay: Antiproliferative activity against human DU145 cells assessed as reduction in cell viability measured after 48 hrs by MTT assay; assay type: functional, cell-based; conditions: for pIC50: DU-145, 48 h
[3] = species on record: Homo sapiens; assay: (§1) Antiproliferative activity against human RKOP3 cells assessed as reduction in cell viability measured after 48 hrs by MTT assay; assay type: functional, cell-based
[4] = as §1; assay type: functional, cell-based
[5] = test system: HeLa; assay: Antiproliferative activity against human HeLa cells assessed as reduction in cell viability measured after 48 hrs by MTT assay; assay type: functional, cell-based
[6] = test system: A549; assay: Antiproliferative activity against human A549 cells assessed as reduction in cell viability measured after 48 hrs by MTT assay; assay type: functional, cell-based; conditions: for pIC50: A549, 48 h
[7] = target: Tubulin (Homo sapiens) (UniProt P68371+Q9H4B7+P0DPH7+P68366+Q13509+Q71U36+P04350+Q3ZCM7+P07437+P68363+Q9BQE3+Q6PEY2+Q13885+Q9BVA1+Q9BUF5); assay: Inhibition of tubulin […] in human DU145 cells assessed as increase in soluble fraction of tubulin at […] measured after 24 hrs by Western blot analysis; assay type: cell-based; conditions: DU-145

Structure (SMILES): COC1=C(OC)C23C(=CC1=O)C[C@H](C)[C@@]2(C)Cc1cc(OC)c(OC)c(OC)c13 (stereo partly specified)
- pIC50 [1]: 4.30
- inhibition [2]: Dose-dependent effect
- pIC50 [2]: 5.02
- inhibition [3]: Dose-dependent effect
- pIC50 [4]: 4.30
- pIC50 [5]: 5.37
- inhibition [5]: Dose-dependent effect
- inhibition [6]: Dose-dependent effect
- pIC50 [6]: 5.11

Structure (SMILES): COC(=O)Nc1nc2cc(C(=O)c3cccs3)ccc2[nH]1
- inhibition [7]: Active

Structure (SMILES): COC1=C(OC)C23C(=C/C1=N\OC(=O)c1ccc(Br)cc1)C[C@H](C)[C@@]2(C)Cc1cc(OC)c(OC)c(OC)c13 (stereo partly specified)
- pIC50 [1]: 3.87
- inhibition [2]: Dose-dependent effect
- pIC50 [2]: 4.69
- inhibition [3]: Dose-dependent effect
- pIC50 [4]: 5.01
- pIC50 [5]: 5.13
- inhibition [5]: Dose-dependent effect
- inhibition [6]: Dose-dependent effect
- pIC50 [6]: 5.23

Structure (SMILES): COC1=C(OC)C23C(=C/C1=N\O)C[C@H](C)[C@@]2(C)Cc1cc(OC)c(OC)c(OC)c13 (stereo partly specified)
- pIC50 [1]: 4.26
- inhibition [2]: Dose-dependent effect
- pIC50 [2]: 5.12
- inhibition [3]: Dose-dependent effect
- pIC50 [4]: 4.25
- pIC50 [5]: 4.30
- inhibition [5]: Dose-dependent effect
- inhibition [6]: Dose-dependent effect
- pIC50 [6]: 5.07

Structure (SMILES): COC1=C(OC)C23C(=C/C1=N\OC(=O)C(C)C)C[C@H](C)[C@@]2(C)Cc1cc(OC)c(OC)c(OC)c13 (stereo partly specified)
- pIC50 [1]: 4.09
- inhibition [2]: Dose-dependent effect
- pIC50 [2]: 4.59
- inhibition [3]: Dose-dependent effect
- pIC50 [4]: 4.81
- pIC50 [5]: 5.32
- inhibition [5]: Dose-dependent effect
- inhibition [6]: Dose-dependent effect
- pIC50 [6]: 5.22

Structure (SMILES): COC1=C(OC)C23C(=C/C1=N\OC(=O)c1ccc(F)cc1)C[C@H](C)[C@@]2(C)Cc1cc(OC)c(OC)c(OC)c13 (stereo partly specified)
- pIC50 [1]: 4.09
- inhibition [2]: Dose-dependent effect
- pIC50 [2]: 4.78
- inhibition [3]: Dose-dependent effect
- pIC50 [4]: 4.68
- pIC50 [5]: 5.26
- inhibition [5]: Dose-dependent effect
- inhibition [6]: Dose-dependent effect
- pIC50 [6]: 5.04

Source: ChEMBL document CHEMBL4622952, “Synthesis and biological evaluation of Schizandrin derivatives as tubulin polymerization inhibitors” (Bioorg Med Chem Lett, 2020)
